Experimental data as given in patent US10533989B2, “Metabolomics in pneumonia and sepsis” (University of Pittsburgh—Of the Commonwealth System of …, priority 2012, dated 2020).

Tested on: differentiated Thp1 monocytes
Test: In-vitro monocyte stimulation, TNFα and IL1β in supernatant by ELISA
Format: cell-based, human
Conditions: for IL-1β in supernatant vs PBS control / TNFα in supernatant vs PBS control: differentiated Thp1 monocytes, 16 h, beta-pseudouridine 10 mM, allantoin 0.3 mg/mL
Excerpt: Among significant metabolites (p<0.05, q<0.1) in our agnostic approach, five nucleic acid metabolites (e.g., beta-pseudouridine, 1-methyladenosine, N-2-methylguanosine, N-6-carbamoylthreonyladenosine, and allantoin) were identified for in vitro monocyte stimulation experiments. See, Table 2. These nucleic acid metabolites may function as damage-associated molecular patterns, and stimulate TNFα and IL1β similar to HMGB-1 and LPS. Bleiblo et al. (2012) “The role of immunostimulatory nucleic acids in septic shock” Int J Clin Exp Med 5:1-23
THP-1 cells (American Type Cell Collection, Manassas, Va., USA) were cultured in suspension in RPMI1640 media (Gibco, Grand Island, N.Y., USA) supplemented with 10% fetal bovine serum, 2 mM L-glutamine, 100 U/mL penicillin, 100 […], and 100 µM sodium pyruvate (all from Gibco). To differentiate the monocytes, 0.33×10^6 cells/mL were suspended in media and treated with 5 ng/mL PMA and then plated. After 48 h, adhered cells were washed three times in PBS and then treated for 16 h with compounds of interest at concentrations described. All compounds were dissolved in endotoxin-free water.
Endotoxin was measured at 61.5-153.8 pg per 250 µL treatment of 10 mM dose beta-pseudouridine, compared to 4,000 pg/mL in LPS-positive control. After 16 h media was collected and TNFα and IL1β levels determined by ELISA (R&D Systems, Minneapolis, Minn., USA) according to manufacturer's instructions. Experiments were repeated after treatment with viral inhibitory peptide of TLR4 (VIPER) and polymyxin B (PMB).

Row | Cytokine (TNFα) levels in the presence of TLR4-receptor inhibitor VIPER (beta-pseudouridine 10 mM with VIPER (TLR4-antagonist), 16 h (FIG. 5D)) | Structure (SMILES) | Cytokine (TNFα) stimulation, concentration dependence (beta-pseudouridine 0.0001-10 mM, 16 h (FIG. 5C)) | Cytokine (TNFα) levels in the presence of polymyxin B (beta-pseudouridine 10 mM with polymyxin B (PMB; 10 μM), 16 h (FIG. 5D)) | IL-1β in supernatant vs PBS control | TNFα in supernatant vs PBS control | IL-1β in supernatant vs PBS control (listed as beta-pseudouridine) | TNFα in supernatant vs PBS control (listed as beta-pseudouridine)
1 | significantly abrogated | O=c1[nH]cc([C@@H]2O[C@H](CO)[C@@H](O)[C@H]2O)c(=O)[nH]1 [pseudouridine] | concentration-dependent | remained significantly elevated | increased | increased | stimulated significant release | stimulated significant release
2 | – | NC(=O)NC1NC(=O)NC1=O (centres unmarked) [allantoin] | – | – | significantly increased | – | – | –
